In patent US20220213126A1, “SMALL MOLECULE AUTOPHAGY INDUCERS FOR THE TREATMENT OF CANCER AND NEURODEGENERATIVE DISEASES” (John Wayne Cancer Institute, priority 2019, published 2022):
“And” between values parts separate entries of the source, which are not always exact repeats. Equal values may be shown once.

What was measured:
[1] = Stability in simulated gastric fluid; type: physicochemical
MDA-MB-231 cells = assay: TNBC cell invasion, Transwells coated with Matrigel; type: cell-based; conditions: 10 μM, 24-72 hours
Experimental: FIGS. 2A and 2B are graphs showing the effect of VMY-BC-1 on TNBC cells. […] The percentage of cells crossing the chamber is presented as the mean±SEM. *P<0.05.
Effect of VMY-BC-1 on Triple Negative Breast Cancer Cell Lines A trans-stilbene boronic acid analog, VMY-BC-1, was tested against a TNBC cell line.

[2] = Stability in simulated intestinal fluid; type: physicochemical
ULK1 [3] = assay: Western blot of autophagy proteins in U87 cells; type: cell-based; conditions: 10 μM, 12-48 hours
Experimental: FIG. 14 is a Western blot of autophagy proteins in U87 GBM cells treated with vehicle (control), VMY-BC-1, or Rapamycin. Western blot is shown for p-ULK1, LC3 A/B, and cleaved PARP.
The effect of VMY-BC-1 on autophagy-related proteins in U87 cells was tested. Protein extracts were made from cells treated with vehicle control, VMY-BC-1 (10 μM), or rapamycin (200 nM) for 12-48 hours.

Caco-2 cell model = assay: Caco-2 permeability; type: in vitro ADME
Caco-2 permeability = type: in vitro ADME; conditions: human, Caco-2
U87 MG tumor xenografts = assay: U87 GBM tumor xenograft efficacy; type: in vivo, SCID mice
Experimental: To evaluate the anti-tumor efficacy of VMY-BC-1 in vivo, GBM tumor xenografts were established in the flanks of SCID mice. 5×10^6 U87 MG (ATCC HTB-14™) cells in 1×HBSS with 1:1 Matrigel® were implanted subcutaneously in the flank of 5-6 week old female SCID mice (C.B-lgh-1b/GbmsTac-Prkdc^scid-Lyst^bg N7; Taconic Biosciences, India). Mice (n=8) were treated with vehicle (2% (v/v) Tween® 80+98% (v/v) of 0.5% (w/v) hydroxypropyl methylcellulose (HPMC) in water) or VMY-BC-1 75 mg/kg PO daily for 14 days. The dose volume was 10 mL/kg. Tumor volume, tumor growth inhibition (TGI), body weight, and clinical signs were monitored as described in Example 5.

[4] = In vivo ADME/plasma pharmacokinetics in male CD1 mice
Experimental: FIG. 8 is a graph showing plasma pharmacokinetics of VMY-BC-1 in vivo. Concentrations are expressed as the mean±SEM.
In vivo ADME characteristics were determined in male CD1 mice following VMY-BC-1 administration at 1 mg/kg intravenously and 25 mg/kg and 100 mg/kg orally (FIG. 8). […] Sustained oral absorption following the 100 mg/kg oral administration indicated solubility was not limited oral absorption.

ULK1 [5] = assay: Western blot of autophagy proteins in MDA-MB-231 cells; type: cell-based; conditions: 10 μM, MDA-MB-231, different time points
Experimental: FIG. 6 is a Western blot of autophagy proteins in TNBC cells treated with vehicle (control), VMY-BC-1, or Rapamycin. Western blot is shown for p-ULK1, LC3 A/B, and cleaved PARP.
To identify the functional target of VMY-BC-1, preliminary cell viability assays were carried out using siRNA to knock down each of the 10 identified binding proteins. […] Considering that that low ULK1 expression is associated with TNBC disease progression (Tang et al., Breast Cancer Res. Treat. 134:549-560, 2012) and autophagy controls the level of various DNA repair and checkpoint proteins in the DNA damage response pathway (Czarny et al., Int. J. Mol. Sci. 16:2641-2662, 2015; Gomes et al., Int. J. Mol. Sci. 18:2351, 2017), ULK1 activity in response to VMY-BC-1 was investigated. Protein extracts were made from MDA-MB-231 cells treated with vehicle control, VMY-BC-1 (10 μM), and Rapamycin (200 nM) at different time points.

[6] = Mouse plasma protein binding (in vitro binding study); type: in vitro ADME, CD1 mouse
Experimental: Free drug fraction in brain and plasma compartment was determined in vitro (Table 7). Brain to plasma (B/P) ratio was also determined in vivo (Table 8).

GBM4 = assay: GBM cell viability, Alamar blue, 72 hours; type: cell-based; conditions: GBM4, patient-derived cell line
Experimental: (§1) The effect of VMY-BC-1 was tested on a panel of GBM cell lines. […] In this study 100 μM was the highest drug concentration used, with 3-fold dilution for a 10 dose response curve.

U87 = assay: GBM cell viability, Alamar blue, 72 hours; type: cell-based; conditions: Homo sapiens, U-87 MG, U87, established glioma cell line
Experimental: as §1

GL261 = assay: GBM cell viability, Alamar blue, 72 hours; type: cell-based; conditions: Mus musculus, GL261, established glioma cell line
Experimental: as §1

U251 = assay: GBM cell viability, Alamar blue, 72 hours; type: cell-based; conditions: Homo sapiens, U-251, U251, established glioma cell line
Experimental: as §1

GBM8 = assay: GBM cell viability, Alamar blue, 72 hours; type: cell-based; conditions: GBM8, patient-derived cell line
Experimental: as §1

[7] = test system: polyQ-expressing C. elegans; assay: PolyQ aggregation in C. elegans Huntington's disease model; type: in vivo; conditions: 1 μM, 72 hours
Experimental: Synchronized populations of polyQ-expressing C. elegans were grown for 72 hours on media containing 1 μM VMY-BC-1. PolyQ aggegrative vacuoles were detected using confocal microscopy. PolyQ aggregations were decreased compared to vehicle (DMSO) (FIG. 21A). Synchronized populations of wild-type worms were grown on media containing VMY-BC-1 from 0.1 to 10 μM.

CYP1A2 = target: T1, CYP1A2 (Homo sapiens, UniProt P05177); assay: CYP inhibition in pooled human liver microsomes; type: in vitro ADME
T1 construct: from tissue; host or cells: pooled human liver microsomes
T1 sequence (P05177 whole entry): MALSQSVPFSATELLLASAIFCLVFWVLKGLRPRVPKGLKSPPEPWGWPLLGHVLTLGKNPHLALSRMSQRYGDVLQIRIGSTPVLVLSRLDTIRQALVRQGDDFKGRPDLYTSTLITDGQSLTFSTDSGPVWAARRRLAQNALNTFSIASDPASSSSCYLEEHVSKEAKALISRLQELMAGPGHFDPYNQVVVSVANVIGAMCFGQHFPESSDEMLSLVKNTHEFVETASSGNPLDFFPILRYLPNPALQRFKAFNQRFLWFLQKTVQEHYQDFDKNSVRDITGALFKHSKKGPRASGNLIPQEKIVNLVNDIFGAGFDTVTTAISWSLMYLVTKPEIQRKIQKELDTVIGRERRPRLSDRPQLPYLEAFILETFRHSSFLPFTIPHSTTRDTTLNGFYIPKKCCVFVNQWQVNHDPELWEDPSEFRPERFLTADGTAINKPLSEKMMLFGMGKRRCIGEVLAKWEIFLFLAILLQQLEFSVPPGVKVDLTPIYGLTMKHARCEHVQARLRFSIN

## COc1ccc(/C=C/c2cc(OC)cc(B(O)O)c2)cc1 [VMY-BC-1]
[1]
  Stability in simulated gastric fluid: stable
[1]; pH 1.2
  Stability in simulated gastric fluid, pH 1.2: 87.81% remaining
MDA-MB-231 cells
  TNBC cell invasion: significantly inhibited TNBC cell invasion in a time-dependent manner
[2]
  Stability in simulated intestinal fluid: 97.24% remaining
  Stability in simulated intestinal fluid (words): stable
ULK1 [3]
  Autophagy proteins and phosphorylation of ULK1 and LC3 A/B (Western blot): increasing amounts of autophagy proteins over time as well as increased phosphorylation of ULK1 and LC3 A/B
Caco-2 cell model
  Permeability in Caco-2 cell model: high permeability
Caco-2 permeability
  efflux ratio: 0.4
Caco-2 permeability; A-B
  Papp A→B: 51 ×10⁻⁶ cm/s
Caco-2 permeability; B-A
  Papp B→A: 20 ×10⁻⁶ cm/s
U87 MG tumor xenografts; 75 mg/kg once daily oral, 14 days
  Treatment-related adverse effects (body weight and clinical signs): No treatment-related adverse effects were observed
U87 MG tumor xenografts; 75 mg/kg once daily oral, end of 2 weeks
  Tumor growth inhibition: 32%
U87 MG tumor xenografts; U87 xenograft mice, 75 mg/kg
  Drug levels in tumor vs plasma: higher VMY-BC-1 drug levels in tumor than in plasma
U87 MG tumor xenografts; tumor tissue, 75 mg/kg
  Apoptosis by TUNEL staining: significant increase in apoptosis
  Reduction in Ki67 proliferation marker vs control: 51%
[4]; 1 mg/kg intravenously
  Plasma clearance: 50 % of hepatic blood flow
[4]; male, CD1, mouse, plasma, iv, 1 mg/kg intravenously, read-out: Elimination half-life (converted)
  half-life: ~1 h
[4]; male, CD1, mouse, plasma, iv, 1 mg/kg intravenously, read-out: Volume of distribution
  Vd: 2.4 L/kg
[4]; male, CD1, mouse, plasma, 25 mg/kg oral, read-out: Oral suspension bioavailability F (%)
  bioavailability: > 100%
[4]; male, CD1, mouse, plasma, oral, dose not given, read-out: Mean maximum concentration (Cmax)
  Cmax: 3060 ng/mL
[4]; male, CD1, mouse, plasma, oral, read-out: Time to maximum concentration (Tmax)
  Tmax: 1 to 2 h
[4]; oral dose 25 to 100 mg/kg
  Increase in Cmax: approximately 5 fold
  Increase in plasma exposures: ~7 fold
ULK1 [5]
  Autophagy proteins and phosphorylation of ULK1 and LC3 A/B (Western blot): increasing amounts of autophagy proteins over time as well as increased phosphorylation of ULK1 and LC3 A/B
[6]; CD1, mouse, mouse plasma
  recovery: 89.3%
[6]; CD1, mouse, plasma, Table 3
  fraction unbound: 0.265
[6]; CD1 mouse plasma
  Plasma protein binding: moderate plasma protein binding
[6]; Mouse Plasma
  Bound (%): 73.48%
  fu (%): 26.52%
GBM4
  IC50: 11 µM
U87
  IC50: 5.88 µM
GL261
  IC50: 4.2 µM
U251
  IC50: 3.98 µM
GBM8
  IC50: 9.28 µM
[7]
  PolyQ aggregations vs vehicle (DMSO): decreased
CYP1A2
  IC50: 5 µM and 4.7 µM
